Patent US20260166039A1 (SCHRÖDINGER, INC., priority 2022, published 2026)
Where two headings read alike, the source gives them in different places.

Tests used:
Wee1 kinase domain = target: T1, Wee1 kinase domain (Homo sapiens, UniProt P30291); test: Wee1 Kinase Biochemical Assay (ADP-Glo); details: 15 uM ATP
T1 construct: Wee1 kinase domain was purchased from Carna (catalog #05-177); purchased Carna 05-177
Outline: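 ADP-Glo luminescence readout of ADP produced by 1 nM kinase domain phosphorylating Poly(Lys,Tyr 4:1) (2 ng/mL) at 15 uM ATP. Reaction ran 4 h, 25 °C, in Tris/MgCl2 buffer with BSA and DTT. Inhibition scaled between DMSO (high) and saturating control inhibitor (low).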

[1] = tested on: phosphorylation of Cdc2 Y15 (Wee1 substrate) in A427 cells; test: Phosphorylated Cdc2 MSD Electrochemiluminescence Assay; type: cell-based; details: Homo sapiens
Outline: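 Read-out: percent residual phospho-Cdc2 Y15 relative to DMSO and positive-control Wee1 inhibitor, measured by MSD electrochemiluminescence capture/detection antibody assay in cell lysates. A427 cells received duplicate 3-fold compound dilution series 20 h post-seeding, with 6 h total incubation at 37 °C.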

[2] = class symbols, 1 nM Wee1 enzyme, 4 hours at 25° C.
[3] = A-427, class symbols, read-out: A427 pCDC2 MSD IC50

T1 sequence (P30291 299-569 limits assumed): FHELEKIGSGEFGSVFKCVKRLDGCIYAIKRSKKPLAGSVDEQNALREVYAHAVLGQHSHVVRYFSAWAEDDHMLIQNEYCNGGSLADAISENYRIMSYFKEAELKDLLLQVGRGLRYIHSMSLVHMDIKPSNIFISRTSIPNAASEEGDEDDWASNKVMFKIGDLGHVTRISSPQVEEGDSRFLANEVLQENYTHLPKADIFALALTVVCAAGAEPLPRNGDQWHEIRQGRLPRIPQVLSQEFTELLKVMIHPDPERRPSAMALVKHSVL

Row | IC50 (Wee1 kinase domain; [2]) [nM] | IC50 [1, 3] [nM] | IC50 (Wee1 kinase domain; Wee1 kinase domain, ADP-Glo) [nM] | IC50 ([1]; A-427, pCDC2 MSD) [nM] | Structure (SMILES) | other results
1 | < 10 | 100 to 1000 |  |  | CC1(C)C[C@H]2N(c3cccc(N=S(C)(C)=O)n3)c3nc(NC(=O)C4CC4)ncc3[C@@]2(C)CO1 (single isomer, unassigned) [Example 399] | 
2 |  |  | < 10 | < 100 | CNCc1cccc(N2c3nc(Nc4cnn(C(C)(C)C)c4)ncc3[C@@]3(C)COC(C)(C)C[C@@H]23)n1 (single isomer, unassigned) [Example 48] | 
3 | < 10 | 100 to 1000 |  |  | CN1CCN(c2cccc(N3c4nc(Nc5ccc(N6CCOCC6)cc5)ncc4[C@@]4(C)COC(C)(C)C[C@@H]34)n2)CC1 (single isomer, unassigned) [Example 535] | 
4 |  |  | < 10 | < 100 | CN1CC[C@@H](Oc2ccc(Nc3ncc4c(n3)N(c3cccc(N=S(C)(C)=O)n3)[C@@H]3CC(C)(C)OC[C@]43C)cc2)C1 (single isomer, unassigned) [Example 159] | 
5 | < 10 | 1000 to 10000 |  |  | CN1CCN(c2ccc(Nc3ncc4c(n3)N(c3ccn(C5CC5)n3)[C@@H]3CC(C)(C)OC[C@]43C)cc2)CC1 (single isomer, unassigned) [Example 739] | 
6 | < 10 | 100 to 1000 |  |  | CC1(C)C[C@H]2N(c3cccc(N=S(C)(C)=O)n3)c3nc(Nc4ccc(N5C[C@H]6C[C@@H]5CO6)cc4)ncc3[C@@]2(C)CO1 (single isomer, unassigned) [Example 498] | 
7 |  |  | < 10 | < 100 | C[C@H]1COC(=O)N1c1cccc(N2c3nc(Nc4ccc([C@]5(C)CCN(C)C5)cc4)ncc3[C@@]3(C)COC(C)(C)C[C@@H]23)n1 (single isomer, unassigned) [Example 351] | 
8 | < 10 | 100 to 1000 |  |  | CN1C[C@@H]2C[C@H]1CN2c1ccc(Nc2ncc3c(n2)N(c2cccc(C4(O)COC4)n2)[C@@H]2CC(C)(C)OC[C@]32C)cc1 (single isomer, unassigned) [Example 518] | 
9 | < 10 | 100 to 1000 |  |  | CNCc1cccc(N2c3nc(Nc4ccc(-c5cnn(C)c5)c(C)c4)ncc3[C@@]3(C)COC(C)(C)C[C@@H]23)n1 (single isomer, unassigned) [Example 464] | 
10 |  |  |  |  | CN1CC2CC1CN2c1ccc(Nc2ncc3c(n2)N(c2cccc(C(F)F)n2)[C@@H]2CC(C)(C)OC[C@]32C)cc1 (stereo in doubt) [Example 814, (4bR,8aR)-9-(6-(difluoromethyl)pyridin-2-yl)-4b,7,7-trimethyl-N-(4-((1R,4R)-5-methyl-2,5-diazabicyclo[2.2.1]heptan-2-yl)phenyl)-4b,5,7,8,8a,9-hexahydropyrano[3′,4′:4,5]pyrrolo[2,3-d]pyrimidin-2-amine] | IC50 (Wee1 kinase domain; 1 nM Wee1 enzyme, 4 hours at 25° C): < 10 nM; IC50 ([1]; A-427, read-out: A427 pCDC2 MSD IC50): 100 to 1000 nM
11 | < 10 | 100 to 1000 |  |  | CN1C[C@H]2C[C@@H]1CN2c1ccc(Nc2ncc3c(n2)N(c2cccc(C(C)(C)O)n2)[C@@H]2CC(C)(C)OC[C@]32C)cc1 (single isomer, unassigned) [Example 413] | 
12 | < 10 | 100 to 1000 |  |  | CNCc1cccc(N2c3nc(Nc4ccc(N5CCOC[C@@H]5C)cc4)ncc3[C@@]3(C)COC(C)(C)C[C@@H]23)n1 (single isomer, unassigned) [Example 476] | 
13 | < 10 | 100 to 1000 |  |  | CN1C[C@H]2C[C@@H]1CN2c1ccc(Nc2ncc3c(n2)N(c2cccc(C(C)(C)O)n2)[C@@H]2CC(C)(C)OC[C@]32C)cc1F (single isomer, unassigned) [Example 427] | 
14 | < 10 | < 100 |  |  | CN[C@]1(C)CCc2ccc(N3c4nc(Nc5ccc(N6CCOCC6)cc5)ncc4[C@@]4(C)COC(C)(C)C[C@@H]34)nc21 (single isomer, unassigned) [Example 569] | 
15 |  |  | < 10 | < 100 | CN1CCC(c2ccc(Nc3ncc4c(n3)N(c3cccc(N=S(C)(C)=O)n3)[C@H]3CC(C)(C)OC[C@@]43C)cc2)CC1 (single isomer, unassigned) [Example 112] | 
16 |  |  | < 10 | < 100 | C[C@H]1COC(=O)N1c1cccc(N2c3nc(Nc4ccc(OC5CCN(C)CC5)nc4)ncc3[C@@]3(C)COC(C)(C)C[C@@H]23)n1 (single isomer, unassigned) [Example 335] | 
17 | < 10 | < 100 |  |  | CN1CC[C@H](Oc2ccc(Nc3ncc4c(n3)N(c3cccc(N5CCCC5=O)n3)[C@@H]3CC(C)(C)OC[C@]43C)cc2)C1 [Example 618, 1-(6-((4bR,8aR)-4b,7,7-trimethyl-2-((4-(((S)-1-methylpyrrolidin-3-yl)oxy)phenyl)amino)-4b,7,8,8a-tetrahydropyrano[3′,4′:4,5]pyrrolo[2,3-d]pyrimidin-9(5H)-yl)pyridin-2-yl)pyrrolidin-2-one] | 
18 |  |  | < 10 | < 100 | CN1Cc2cc(Nc3ncc4c(n3)N(c3cccc(N=S(C)(C)=O)n3)[C@@H]3CC(C)(C)OC[C@]43C)cnc2C1 (single isomer, unassigned) [Example 188] | 
19 |  |  | < 10 | 100 to 1000 | CN1CCC[C@@H]1c1cccc(N2c3nc(Nc4ccn(C5CCOCC5)c(=O)c4)ncc3[C@@]3(C)COC(C)(C)C[C@@H]23)n1 (single isomer, unassigned) [Example 395] | 
20 |  |  | < 10 | 100 to 1000 | Cc1cc(Nc2ncc3c(n2)N(c2cccc(N4C(=O)OC[C@@H]4C)n2)[C@@H]2CC(C)(C)OC[C@]32C)ccc1N1C[C@@H]2C[C@H]1CN2C (single isomer, unassigned) [Example 295] | 
21 | < 10 | 100 to 1000 |  |  | CN[C@@H](C)c1cccc(N2c3nc(Nc4ccc(N5C[C@@H]6C[C@H]5CO6)cc4)ncc3[C@@]3(C)COC(C)(C)C[C@@H]23)n1 (single isomer, unassigned) [Example 581] | 
22 |  |  | < 10 | < 100 | CC1(C)C[C@H]2N(c3cccc(N=S(C)(C)=O)n3)c3nc(Nc4ccc([C@@H]5CCNC5)cc4)ncc3[C@@]2(C)CO1 (single isomer, unassigned) [Example 131] | 
23 | < 10 | 100 to 1000 |  |  | CN1C[C@H]2C[C@@H]1CN2c1ccc(Nc2ncc3c(n2)N(c2cccc(C4(O)CC4)n2)C2CC(C)(C)OCC32C)cc1 (stereo in doubt) [Example 646, 1-(6-((4bR,8aR)-4b,7,7-trimethyl-2-((4-((1R,4R)-5-methyl-2,5-diazabicyclo[2.2.1]heptan-2-yl)phenyl)amino)-4b,7,8,8a-tetrahydropyrano[3′,4′:4,5]pyrrolo[2,3-d]pyrimidin-9(5H)-yl)pyridin-2-yl)cyclopropan-1-ol] | 
24 | < 10 | 100 to 1000 |  |  | CN1CCN(c2ccc(Nc3ncc4c(n3)N(c3ccn(C)n3)[C@@H]3CC(C)(C)OC[C@]43C)cc2)CC1 (single isomer, unassigned) [Example 717] | 
25 |  |  | < 10 | 100 to 1000 | CN1CCC(n2cc(Nc3ncc4c(n3)N(c3cccc(N=S(C)(C)=O)n3)[C@@H]3CC(C)(C)OC[C@]43C)cn2)C1 (stereo partly drawn) [Example 196, dimethyl((6-((4bR,8aR)-4b,7,7-trimethyl-2-((1-((R)-1-methylpyrrolidin-3-yl)-1H-pyrazol-4-yl)amino)-4b,7,8,8a-tetrahydropyrano[3′,4′:4,5]pyrrolo[2,3-d]pyrimidin-9(5H)-yl)pyridin-2-yl)imino)-16-sulfanone] | 
26 |  |  | < 10 | < 100 | Cc1cc(Nc2ncc3c(n2)N(c2cccc(N=S(C)(C)=O)n2)[C@@H]2CC(C)(C)OC[C@]32C)ccc1C1CCN(C)CC1 (single isomer, unassigned) [Example 104] | 
